Target: T1, WT LRRK2 (Homo sapiens, UniProt Q5S007)
T1 construct: endogenous in cells; host or cells: HEK293 (endogenous LRRK2 gene knock-in tagged with HiBit; stably expressing CMV-driven firefly luciferase)
Assay: LRRK2 HiBit degradation assay (Nano-Glo Dual Luciferase) in HEK293 cells with HiBit-tagged endogenous LRRK2
Type: cell-based
Conditions: for Dmax: maximal degradation
Method in brief: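 HEK293 cells carrying endogenous C-terminally HiBit-tagged LRRK2 and stably expressing CMV-driven firefly luciferase were treated for 24 h at 37° C with an 11-point 1:3 series from a 1 μM final top concentration. Nano-Glo Dual Luciferase read LRRK2-HiBit against firefly signal. Alamar Blue gave viability, and signals were normalized to DMSO median before curve fitting.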

[1] = Table 2, HiBit-tagged LRRK2 in HEK293 cells, 24 hours treatment, starting concentration 1 μM
[2] = Table 2, HiBit-tagged LRRK2 in HEK293 cells, 24 hours treatment
[3] = HEK293, Table 2, HiBit-tagged LRRK2 in HEK293 cells, 24 hours treatment
[4] = HEK293, Table 3, comparison with direct comparators
[5] = Table 3, comparison with direct comparators, HiBit-tagged LRRK2 in HEK293 cells, 24 hours treatment

T1 sequence (Q5S007 whole entry): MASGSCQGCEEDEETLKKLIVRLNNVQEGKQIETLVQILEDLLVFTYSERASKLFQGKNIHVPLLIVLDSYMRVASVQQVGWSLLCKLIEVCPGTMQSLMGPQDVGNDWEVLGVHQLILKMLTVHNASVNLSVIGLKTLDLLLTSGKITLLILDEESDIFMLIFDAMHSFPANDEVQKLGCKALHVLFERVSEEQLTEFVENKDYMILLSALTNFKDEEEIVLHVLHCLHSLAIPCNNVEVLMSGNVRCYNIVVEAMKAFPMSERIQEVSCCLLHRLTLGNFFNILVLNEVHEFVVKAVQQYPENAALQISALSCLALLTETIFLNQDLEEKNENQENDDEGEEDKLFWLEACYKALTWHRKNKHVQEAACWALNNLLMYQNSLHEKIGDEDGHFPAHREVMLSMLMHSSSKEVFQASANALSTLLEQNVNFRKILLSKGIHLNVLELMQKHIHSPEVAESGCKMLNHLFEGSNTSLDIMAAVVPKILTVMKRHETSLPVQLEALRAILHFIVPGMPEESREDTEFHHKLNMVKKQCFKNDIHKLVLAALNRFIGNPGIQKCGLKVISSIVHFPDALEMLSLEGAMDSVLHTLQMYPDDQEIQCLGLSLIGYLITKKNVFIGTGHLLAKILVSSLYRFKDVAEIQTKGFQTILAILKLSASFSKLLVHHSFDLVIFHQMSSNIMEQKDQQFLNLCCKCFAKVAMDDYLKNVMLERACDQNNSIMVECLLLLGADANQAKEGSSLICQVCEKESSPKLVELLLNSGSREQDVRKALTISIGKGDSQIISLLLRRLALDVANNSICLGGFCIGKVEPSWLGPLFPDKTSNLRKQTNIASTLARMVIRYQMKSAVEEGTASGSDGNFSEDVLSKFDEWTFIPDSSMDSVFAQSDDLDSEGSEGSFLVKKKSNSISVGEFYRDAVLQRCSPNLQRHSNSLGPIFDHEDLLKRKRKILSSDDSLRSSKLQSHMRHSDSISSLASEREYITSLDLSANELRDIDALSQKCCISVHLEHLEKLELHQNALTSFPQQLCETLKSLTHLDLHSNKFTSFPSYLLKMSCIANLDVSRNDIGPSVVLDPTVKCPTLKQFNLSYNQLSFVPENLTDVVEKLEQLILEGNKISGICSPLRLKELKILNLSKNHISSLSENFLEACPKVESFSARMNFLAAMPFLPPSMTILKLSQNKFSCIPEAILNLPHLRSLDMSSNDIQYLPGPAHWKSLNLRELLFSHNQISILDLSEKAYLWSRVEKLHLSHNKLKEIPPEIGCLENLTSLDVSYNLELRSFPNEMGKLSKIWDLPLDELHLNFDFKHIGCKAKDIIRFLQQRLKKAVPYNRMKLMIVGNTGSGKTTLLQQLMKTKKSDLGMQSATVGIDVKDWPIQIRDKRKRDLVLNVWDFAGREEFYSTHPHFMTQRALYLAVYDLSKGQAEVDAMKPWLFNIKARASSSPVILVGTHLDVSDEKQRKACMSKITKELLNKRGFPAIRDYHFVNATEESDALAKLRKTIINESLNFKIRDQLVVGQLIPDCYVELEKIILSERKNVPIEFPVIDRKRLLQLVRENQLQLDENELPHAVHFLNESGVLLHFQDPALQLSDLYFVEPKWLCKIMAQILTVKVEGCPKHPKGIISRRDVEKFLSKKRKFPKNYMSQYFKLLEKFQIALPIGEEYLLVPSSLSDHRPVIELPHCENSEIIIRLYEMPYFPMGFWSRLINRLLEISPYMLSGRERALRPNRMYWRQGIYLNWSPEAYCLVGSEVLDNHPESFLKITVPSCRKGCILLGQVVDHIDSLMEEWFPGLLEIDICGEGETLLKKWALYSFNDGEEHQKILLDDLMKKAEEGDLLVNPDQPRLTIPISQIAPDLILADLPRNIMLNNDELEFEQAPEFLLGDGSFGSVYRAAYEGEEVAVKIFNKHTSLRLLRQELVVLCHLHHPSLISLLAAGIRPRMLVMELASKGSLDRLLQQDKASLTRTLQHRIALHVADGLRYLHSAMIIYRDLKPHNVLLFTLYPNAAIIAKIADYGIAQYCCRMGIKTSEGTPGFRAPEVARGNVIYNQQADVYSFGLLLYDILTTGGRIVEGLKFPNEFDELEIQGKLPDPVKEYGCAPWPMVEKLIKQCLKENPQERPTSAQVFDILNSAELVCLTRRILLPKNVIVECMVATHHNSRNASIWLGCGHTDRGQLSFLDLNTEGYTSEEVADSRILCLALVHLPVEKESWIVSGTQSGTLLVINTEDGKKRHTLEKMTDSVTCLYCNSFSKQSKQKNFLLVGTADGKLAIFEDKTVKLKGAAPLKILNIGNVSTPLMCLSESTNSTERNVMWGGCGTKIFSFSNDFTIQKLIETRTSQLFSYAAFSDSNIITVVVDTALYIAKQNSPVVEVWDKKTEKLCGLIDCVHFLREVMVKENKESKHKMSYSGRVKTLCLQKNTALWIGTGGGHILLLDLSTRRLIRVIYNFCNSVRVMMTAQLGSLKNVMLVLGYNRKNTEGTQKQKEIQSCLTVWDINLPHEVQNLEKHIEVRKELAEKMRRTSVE

Row | DC50 [1] [nM] | Dmax [3] [%] | Dmax [4] [%] | DC50 [5] [nM] | SMILES | Dmax [2] [%]
1 | 0.16 | 63 | – | – | Cn1c(=O)n(C2CCC(=O)NC2=O)c2ccc(N3CCC(O[C@H]4CC[C@H](CN5CCN(c6cc(-c7n[nH]c8ccc(C9(C#N)CC%10(CC%10)C9)cc78)ncn6)CC5)CC4)CC3)cc21 (single isomer, unassigned) [Compound 64, rel-5-{3-[6-(4-{[(1r,4r)-4-({1-[1-(2,6-dioxopiperidin-3-yl)-3-methyl-2-oxo-2,3-dihydro-1H-1,3-benzodiazol-5-yl]piperidin-4-yl}oxy)cyclohexyl]methyl}piperazin-1-yl)pyrimidin-4-yl]-1H-indazol-5-yl}spiro[2.3]hexane-5-carbonitrile] | –
2 | 1 | 64 | 64 | 1 | CC1(Oc2ccc3[nH]nc(-c4cc(N5CCC(CN6CCN(CC7CCN(c8ccc9c(c8)ncn9C8CCC(=O)NC8=O)CC7)CC6(C)C)CC5)ncn4)c3c2)CC1 (centres unmarked) [Compound 13, 3-{5-[4-({3,3-dimethyl-4-[(1-{6-[5-(1-methylcyclopropoxy)-1H-indazol-3-yl]pyrimidin-4-yl}piperidin-4-yl)methyl]piperazin-1-yl}methyl)piperidin-1-yl]-1H-1,3-benzodiazol-1-yl}piperidine-2,6-dione] | –
3 | 0.17 | 64 | 64 | 0.17 | Cn1c(=O)n(C2CCC(=O)NC2=O)c2ccc(N3CCC(CN4CCN(CC5CCN(c6cc(-c7n[nH]c8ccc(OC9(C)CC9)cc78)ncn6)CC5)CC4)CC3)cc21 (centres unmarked) [Compound 12, 3-{3-methyl-5-[4-({4-[(1-{6-[5-(1-methylcyclopropoxy)-1H-indazol-3-yl]pyrimidin-4-yl}piperidin-4-yl)methyl]piperazin-1-yl}methyl)piperidin-1-yl]-2-oxo-2,3-dihydro-1H-1,3-benzodiazol-1-yl}piperidine-2,6-dione] | –
4 | 0.3 | 54 | – | – | Cn1c(=O)n(C2CCC(=O)NC2=O)c2ccc(N3CCC(O[C@H]4CC[C@H](CN5CCN(c6cc(-c7n[nH]c8ccc(C9(C#N)CCC9)cc78)ncn6)CC5)CC4)CC3)cc21 (single isomer, unassigned) [Compound 62, rel-1-{3-[6-(4-{[(1r,4r)-4-({1-[1-(2,6-dioxopiperidin-3-yl)-3-methyl-2-oxo-2,3-dihydro-1H-1,3-benzodiazol-5-yl]piperidin-4-yl}oxy)cyclohexyl]methyl}piperazin-1-yl)pyrimidin-4-yl]-1H-indazol-5-yl}cyclobutane-1-carbonitrile] | –
5 | 4.5 | 69 | – | – | CC1(Oc2ccc3[nH]nc(-c4cc(N5CCC(CN6CCN(CC7CCN(c8ccc9ncn(C%10CCC(=O)NC%10=O)c9c8)CC7)CC6(C)C)CC5)ncn4)c3c2)CC1 (centres unmarked) [Compound 10, 3-{6-[4-({3,3-dimethyl-4-[(1-{6-[5-(1-methylcyclopropoxy)-1H-indazol-3-yl]pyrimidin-4-yl}piperidin-4-yl)methyl]piperazin-1-yl}methyl)piperidin-1-yl]-1H-1,3-benzodiazol-1-yl}piperidine-2,6-dione] | –
6 | 0.56 | 45 | – | – | Cn1c(=O)n(C2CCC(=O)NC2=O)c2ccc(N3CCC(O[C@H]4CC[C@H](CN5CCN(c6cc(-c7n[nH]c8cnc(C9(C#N)CC9)cc78)ncn6)CC5)CC4)CC3)cc21 (single isomer, unassigned) [Compound 23, rel-1-{3-[6-(4-{[(1r,4r)-4-({1-[1-(2,6-dioxopiperidin-3-yl)-3-methyl-2-oxo-2,3-dihydro-1H-1,3-benzodiazol-5-yl]piperidin-4-yl}oxy)cyclohexyl]methyl}piperazin-1-yl)pyrimidin-4-yl]-1H-pyrazolo[3,4-c]pyridin-5-yl}cyclopropane-1-carbonitrile] | –

Further lines, the compound ahead of its results:

Row | SMILES | DC50 [1] [nM] | Dmax [3] [%] | Dmax [4] [%] | DC50 [5] [nM] | Dmax [2] [%]
7 | Cn1c(=O)n(C2CCC(=O)NC2=O)c2ccc(N3CCC(OC[C@H]4C[C@H](OC5CCN(c6cc(-c7n[nH]c8ccc(OC9(C)CC9)cc78)ncn6)CC5)C4)CC3)cc21 (single isomer, unassigned) [Compound 33, rel-3-[3-methyl-2-oxo-5-(4-{[(1r,3r)-3-[(1-{6-[5-(1-methylcyclopropoxy)-1H-indazol-3-yl]pyrimidin-4-yl}piperidin-4-yl)oxy]cyclobutyl]methoxy}piperidin-1-yl)-2,3-dihydro-1H-1,3-benzodiazol-1-yl]piperidine-2,6-dione] | 0.14 | – | – | – | 62
8 | CC1(Oc2cc3c(-c4cc(N5CCN(C[C@H]6CC[C@H](OC7CCN(c8ccc9c(c8F)CN(C8CCC(=O)NC8=O)C9=O)CC7)CC6)CC5)ncn4)n[nH]c3cn2)CC1 (some centres unmarked) [Comparative Example 3, reference compound] | – | – | 65 | 4.3 | –
9 | Cn1c(=O)n(C2CCC(=O)NC2=O)c2ccc(N3CCC(O[C@H]4C[C@H](OC5CCN(c6cc(-c7n[nH]c8cnc(OC9(C)CC9)cc78)ncn6)CC5)C4)CC3)cc21 (single isomer, unassigned) [Compound 30, rel-3-(3-methyl-2-oxo-5-{4-[(1r,3r)-3-[(1-{6-[5-(1-methylcyclopropoxy)-1H-pyrazolo[3,4-c]pyridin-3-yl]pyrimidin-4-yl}piperidin-4-yl)oxy]cyclobutoxy]piperidin-1-yl}-2,3-dihydro-1H-1,3-benzodiazol-1-yl)piperidine-2,6-dione] | 0.065 | – | – | – | 48
10 | Cn1c(=O)n(C2CCC(=O)NC2=O)c2cc(N3CCC(OC4CCC(CN5CCN(c6cc(-c7n[nH]c8ccc(OC9(C)CC9)cc78)ncn6)CC5)CC4)CC3)ccc21 (centres unmarked) [Compound 5, 3-[3-methyl-2-oxo-6-(4-{[(1r,4r)-4-[(4-{6-[5-(1-methylcyclopropoxy)-1H-indazol-3-yl]pyrimidin-4-yl}piperazin-1-yl)methyl]cyclohexyl]oxy}piperidin-1-yl)-2,3-dihydro-1H-1,3-benzodiazol-1-yl]piperidine-2,6-dione] | ≥ 1000 | – | – | – | –

From patent US12589156B2, “Benzimidazole and benzimidazolone based protac compounds for the targeted degradation of leucine rich repeat kinase 2 (LRRK2)” (Arvinas Operations, Inc., priority 2023, dated 2026)
